Tests used:
[1] = target: T1, recombinant human ALK5 (TGF-βR1) protein (Homo sapiens, UniProt P36897); assay: Biochemical ALK5 (TGF-βR1) assay to measure pKi (LANCE Ultra ULight kinase assay); conditions: apparent pKi from pIC50 by Cheng-Prusoff, read-out: ALK5 pKi (converted)
T1 construct: purchased Life Technologies PR9075A
T1 sequence (P36897 34-503): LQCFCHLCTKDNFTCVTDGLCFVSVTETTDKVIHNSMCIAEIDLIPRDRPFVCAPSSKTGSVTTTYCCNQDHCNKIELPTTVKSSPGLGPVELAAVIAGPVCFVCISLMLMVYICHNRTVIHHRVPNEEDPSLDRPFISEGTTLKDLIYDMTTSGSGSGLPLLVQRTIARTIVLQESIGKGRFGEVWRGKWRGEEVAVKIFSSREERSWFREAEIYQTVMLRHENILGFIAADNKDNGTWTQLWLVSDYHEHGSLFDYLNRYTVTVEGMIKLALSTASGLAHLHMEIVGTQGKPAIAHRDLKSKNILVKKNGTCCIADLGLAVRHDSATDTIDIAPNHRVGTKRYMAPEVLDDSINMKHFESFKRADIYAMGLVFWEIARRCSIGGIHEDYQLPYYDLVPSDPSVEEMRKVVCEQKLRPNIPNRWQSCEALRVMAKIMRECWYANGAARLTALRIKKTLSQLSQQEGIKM
Procedure, shortened: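 Compounds (10 μM to 25 pM) preincubated 60 minutes at room temperature with enzyme, then reaction run 60 minutes at 37° C with ATP added as 125 μM (5× final). Stopped with EDTA plus Eu-anti-phospho-Topoisomerase 2-alpha (Thr1342) antibody, TR-FRET read at 665 nm; pIC50 converted to pKi via Cheng-Prusoff.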

[2] = system: TGF-β-stimulated SMAD3 phosphorylation in BEAS-2B cells; assay: Cellular ALK5 potency assay, inhibition of TGF-β stimulated pSMAD3 formation in BEAS-2B cells; format: cell-based; conditions: Homo sapiens; inhibition of TGF-β stimulated pSMAD3 formation, BEAS-2B cells; read-out: BEAS2B pIC50 (converted)
Procedure, shortened: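 BEAS-2B human lung epithelial cells, seeded overnight, were pre-treated with compound in HBSS/25 mM HEPES/1% BSA for 1 h at 37 °C, then stimulated with TGF-β (final 10 ng/mL) for 30 min. Lysates were assayed for pSMAD3 by AlphaLISA; pIC50 came from dose-dependent signal change versus TGF-β-stimulated untreated cells.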

## Cc1cccc(-c2[nH]cnc2-c2ccc3ncc(C(=O)O[C@@H]4CCN(C)C4)cc3c2)n1 [Compound 758, [(3R)-1-methylpyrrolidin-3-yl] 6-[5-(6-methyl-2-pyridyl)-1H-imidazol-4-yl]quinoline-3-carboxylate]
[1]
  Ki: 0.398 to 3.16 nM
[2]
  IC50: 25.1 to 158 nM

## Cc1cccc(-c2[nH]cnc2-c2ccc3ncc(C(=O)O[C@H]4C[C@@H](N)C4)cc3c2)n1 [Compound 759, (3-aminocyclobutyl) 6-[5-(6-methyl-2-pyridyl)-1H-imidazol-4-yl]quinoline-3-carboxylate]
[1]
  Ki: 0.0398 to 0.316 nM
[2]
  IC50: 25.1 to 158 nM

## Cc1cccc(-c2[nH]cnc2-c2ccc3ncc(C(=O)OC[C@H]4CCCN4)cc3c2)n1 [Compound 760, [(2R)-pyrrolidin-2-yl]methyl 6-[5-(6-methyl-2-pyridyl)-1H-imidazol-4-yl]quinoline-3-carboxylate]
[1]
  Ki: 0.398 to 3.16 nM
[2]
  IC50: 25.1 to 158 nM

## Cc1cccc(-c2[nH]cnc2-c2ccc3ncc(C(=O)OCCC4CNC4)cc3c2)n1 [Compound 761, 2-(azetidin-3-yl)ethyl 6-[5-(6-methyl-2-pyridyl)-1H-imidazol-4-yl]quinoline-3-carboxylate]
[1]
  Ki: 0.0398 to 0.316 nM
[2]
  IC50: 200 to 1260 nM

## Cc1cccc(-c2[nH]cnc2-c2ccc3ncc(C(=O)OC[C@@H]4CCCN4)cc3c2)n1 [Compound 762, [(2S)-pyrrolidin-2-yl]methyl 6-[5-(6-methyl-2-pyridyl)-1H-imidazol-4-yl]quinoline-3-carboxylate]
[1]
  Ki: 0.398 to 3.16 nM
[2]
  IC50: 25.1 to 158 nM

## Cc1cccc(-c2[nH]cnc2-c2ccc3ncc(C(=O)O[C@H]4CC[C@H](N)CC4)cc3c2)n1 [Compound 763, (4-aminocyclohexyl) 6-[5-(6-methyl-2-pyridyl)-1H-imidazol-4-yl]quinoline-3-carboxylate]
[1]
  Ki: 0.0398 to 0.316 nM
[2]
  IC50: 25.1 to 158 nM

## Cc1cccc(-c2[nH]cnc2-c2ccc3ncc(C4=CC[C@H](NC(=O)[C@@H]5CCC(=O)N5)CC4)cc3c2)n1 [Compound 764, (2S)-N-[(1R)-4-[6-[5-(6-methyl-2-pyridyl)-1H-imidazol-4-yl]-3-quinolyl]cyclohex-3-en-1-yl]-5-oxo-pyrrolidine-2-carboxamide]
[1]
  Ki: 0.0398 to 0.316 nM
[2]
  IC50: 200 to 1260 nM

## Cc1cccc(-c2[nH]cnc2-c2ccc3ncc(C(=O)OC[C@H]4CC[C@H](N)CC4)cc3c2)n1 [Compound 765, (4-aminocyclohexyl)methyl 6-[5-(6-methyl-2-pyridyl)-1H-imidazol-4-yl]quinoline-3-carboxylate]
[1]
  Ki: 0.0398 to 0.316 nM
[2]
  IC50: 25.1 to 158 nM

## Cc1cccc(-c2[nH]cnc2-c2ccc3ncc(C(=O)O[C@H]4CC[C@@](C)(N)CC4)cc3c2)n1 [Compound 768, (4-amino-4-methyl-cyclohexyl) 6-[5-(6-methyl-2-pyridyl)-1H-imidazol-4-yl]quinoline-3-carboxylate]
[1]
  Ki: 0.0398 to 0.316 nM
[2]
  IC50: 25.1 to 158 nM

## Cc1cccc(-c2[nH]cnc2-c2ccc3ncc(C(=O)OC[C@H]4CC[C@@H](N)CC4)cc3c2)n1 [Compound 770, (4-aminocyclohexyl)methyl 6-[5-(6-methyl-2-pyridyl)-1H-imidazol-4-yl]quinoline-3-carboxylate]
[1]
  Ki: 0.0398 to 0.316 nM
[2]
  IC50: 25.1 to 158 nM

## Cc1cccc(-c2[nH]cnc2-c2ccc3ncc(C(=O)O[C@H]4CC[C@](C)(N)CC4)cc3c2)n1 [Compound 771, (4-amino-4-methyl-cyclohexyl) 6-[5-(6-methyl-2-pyridyl)-1H-imidazol-4-yl]quinoline-3-carboxylate]
[1]
  Ki: 0.0398 to 0.316 nM
[2]
  IC50: 25.1 to 158 nM

## Cc1cccc(-c2[nH]cnc2-c2ccc3ncc(C(=O)OC[C@H]4CCCNC4)cc3c2)n1 [Compound 772, [(3S)-3-piperidyl]methyl 6-[5-(6-methyl-2-pyridyl)-1H-imidazol-4-yl]quinoline-3-carboxylate]
[1]
  Ki: 0.0398 to 0.316 nM
[2]
  IC50: 25.1 to 158 nM

## Cc1cccc(-c2[nH]cnc2-c2ccc3ncc(C(=O)OC4CCCCNC4)cc3c2)n1 (centres unmarked) [Compound 773, azepan-3-yl 6-[5-(6-methyl-2-pyridyl)-1H-imidazol-4-yl]quinoline-3-carboxylate]
[1]
  Ki: 0.0398 to 0.316 nM
[2]
  IC50: 25.1 to 158 nM

## Cc1cccc(-c2[nH]cnc2-c2ccc3ncc(C4=CC[C@@H](NC(=O)[C@@H]5CCCN5)CC4)cc3c2)n1 [Compound 775, (2S)-N-[(1S)-4-[6-[5-(6-methyl-2-pyridyl)-1H-imidazol-4-yl]-3-quinolyl]cyclohex-3-en-1-yl]pyrrolidine-2-carboxamide]
[1]
  Ki: 0.0398 to 0.316 nM
[2]
  IC50: 25.1 to 158 nM

## Cc1cccc(-c2[nH]cnc2-c2ccc3ncc(C4=CC[C@H](NC(=O)[C@H]5CCCN5)CC4)cc3c2)n1 [Compound 776, (2R)-N-[(1R)-4-[6-[5-(6-methyl-2-pyridyl)-1H-imidazol-4-yl]-3-quinolyl]cyclohex-3-en-1-yl]pyrrolidine-2-carboxamide]
[1]
  Ki: 0.0398 to 0.316 nM
[2]
  IC50: 25.1 to 158 nM

## Cc1cccc(-c2[nH]cnc2-c2ccc3ncc(C4=CC[C@@H](NC(=O)[C@H]5CCCN5)CC4)cc3c2)n1 [Compound 777, (2R)-N-[(1S)-4-[6-[5-(6-methyl-2-pyridyl)-1H-imidazol-4-yl]-3-quinolyl]cyclohex-3-en-1-yl]pyrrolidine-2-carboxamide]
[1]
  Ki: 0.0398 to 0.316 nM
[2]
  IC50: 25.1 to 158 nM

## Cc1cccc(-c2[nH]cnc2-c2ccc3ncc(C4=CCN(C(=O)C5CCNCC5)CC4)cc3c2)n1 [Compound 778, [4-[6-[5-(6-methyl-2-pyridyl)-1H-imidazol-4-yl]-3-quinolyl]-3,6-dihydro-2H-pyridin-1-yl]-(4-piperidyl)methanone]
[1]
  Ki: 0.0398 to 0.316 nM
[2]
  IC50: 25.1 to 158 nM

## Cc1cccc(-c2[nH]cnc2-c2ccc3ncc(C4=CCN(C(=O)[C@@H]5CCCN5)CC4)cc3c2)n1 [Compound 779, [4-[6-[5-(6-methyl-2-pyridyl)-1H-imidazol-4-yl]-3-quinolyl]-3,6-dihydro-2H-pyridin-1-yl]-[(2S)-pyrrolidin-2-yl]methanone]
[1]
  Ki: 0.0398 to 0.316 nM
[2]
  IC50: 25.1 to 158 nM

## Cc1cccc(-c2[nH]cnc2-c2ccc3ncc(C(=O)OCC45CCC(CC4)N5)cc3c2)n1 [Compound 780, 7-azabicyclo[2.2.1]heptan-1-ylmethyl 6-[5-(6-methyl-2-pyridyl)-1H-imidazol-4-yl]quinoline-3-carboxylate]
[1]
  Ki: 0.398 to 3.16 nM
[2]
  IC50: 25.1 to 158 nM

## Cc1cccc(-c2[nH]cnc2-c2ccc3ncc(C(=O)O[C@@H]4CCCNC4)cc3c2)n1 [Compound 781, [(3R)-3-piperidyl] 6-[5-(6-methyl-2-pyridyl)-1H-imidazol-4-yl]quinoline-3-carboxylate]
[1]
  Ki: 0.398 to 3.16 nM
[2]
  IC50: 25.1 to 158 nM

## Cc1cccc(-c2[nH]cnc2-c2ccc3ncc(C(=O)O[C@H]4C[C@H](N)C4)cc3c2)n1 [Compound 782, (3-aminocyclobutyl) 6-[5-(6-methyl-2-pyridyl)-1H-imidazol-4-yl]quinoline-3-carboxylate]
[1]
  Ki: 0.0398 to 0.316 nM
[2]
  IC50: 25.1 to 158 nM

## Cc1cccc(-c2[nH]ncc2-c2ccc3ncc(C(=O)O)cc3c2)n1 [Compound 783, 6-[5-(6-methyl-2-pyridyl)-1H-pyrazol-4-yl]quinoline-3-carboxylic Acid]
[1]
  Ki: 3.98 to 31.6 nM
[2]
  IC50: 1580 to 10000 nM

## Cc1cccc(-c2[nH]ncc2-c2ccc3ncc(C(=O)OCC4CNC4)cc3c2)n1 [Compound 790, azetidin-3-ylmethyl 6-(5-(6-methylpyridin-2-yl)-1H-pyrazol-4-yl)quinoline-3-carboxylate]
[1]
  Ki: 0.0398 to 0.316 nM
[2]
  IC50: 25.1 to 158 nM

## Cc1cccc(-c2[nH]cnc2-c2ccc3ncc(-c4cccc(C(=O)O)c4)cc3c2)n1 [Compound 794, 3-[6-[5-(6-methyl-2-pyridyl)-1H-imidazol-4-yl]-3-quinolyl]benzoic acid]
[1]
  Ki: 0.0398 to 0.316 nM
[2]
  IC50: 1580 to 10000 nM

## Cc1cccc(-c2[nH]cnc2-c2ccc3ncc(-c4cncc(C(=O)O)c4)cc3c2)n1 [Compound 795, 5-[6-[5-(6-methyl-2-pyridyl)-1H-imidazol-4-yl]-3-quinolyl]pyridine-3-carboxylic acid]
[1]
  Ki: 0.398 to 3.16 nM
[2]
  IC50: 1580 to 10000 nM

## Cc1cccc(-c2[nH]cnc2-c2ccc3ncc(C(=O)O)cc3c2)n1 [Compound 796, 6-[5-(6-methyl-2-pyridyl)-1H-imidazol-4-yl]quinoline-3-carboxylic Acid]
[1]
  Ki: 3.98 to 31.6 nM
[2]
  IC50: 1580 to 10000 nM

## Cc1cccc(-c2[nH]cnc2-c2ccc3ncc(-c4nc(C(=O)O)cs4)cc3c2)n1 [Compound 797, 2-(6-(5-(6-methylpyridin-2-yl)-1H-imidazol-4-yl)quinolin-3-yl)thiazole-4-carboxylic acid]
[1]
  Ki: 0.0398 to 0.316 nM
[2]
  IC50: 1580 to 10000 nM

## Cc1cccc(-c2[nH]cnc2-c2ccc3ncc(-c4csc(C(=O)O)c4)cc3c2)n1 [Compound 798, 4-(6-(5-(6-methylpyridin-2-yl)-1H-imidazol-4-yl)quinolin-3-yl)thiophene-2-carboxylic acid]
[1]
  Ki: 0.0398 to 0.316 nM
[2]
  IC50: 1580 to 10000 nM
